How the values were obtained:
Human Factor Xa = target: T1, Human Factor Xa (Homo sapiens, UniProt P00742); test: Factor Xa enzyme inhibition assay; assay type: biochemical; conditions: read-out: Factor Xa pIC50 (converted)
T1 construct: Human Factor Xa was purchased from Enzo Life Sciences; purchased Enzo Life Sciences
Procedure: Human thrombin was purchased from Biopur. Human trypsin was purchased from Polymun Scientific. Human Factor Xa was purchased from Enzo Life Sciences. Thrombin (20 nM), trypsin (0.000015 %) or Factor Xa (10 nM) were assayed in a similar manner to the KLKs but were incubated with compound for 20 min at room temperature in assay buffer (50 mM Tris HCl, pH 7.6, 100 mM NaCl, 1 mg/ml CHAPS, 0.05 % bovine serum albumin (BSA), 1 mM dithiothreitol (DTT)) before the addition of 5 μM, 2.5 μM or 1.5 μM Rhodamine 110 substrate (Cambridge bioscience ltd) respectively. Fluorescence intensity was then read at ex/em 485/535 following incubation for 1 h at room temperature (thrombin and factor Xa) or 20 min (trypsin).

[1] = Hepatocytes intrinsic clearance; assay type: in vitro ADME
Procedure: Hepatocytes Intrinsic clearance (CLint) assay: Cryopreserved vials of mouse cryopreserved hepatocytes, supplied by Life Technologies, were thawed according to manufacturer's instructions and cells re‐suspended in Williams Medium E (WME) containing cell maintenance supplement pack (CM4000, Life Technologies). Hepatocytes were incubated in suspension (0.5x10^6 cells/mL) in 48 well non‐collagen coated cell culture plates for 10 min at 37 °C, 95 % O2 5 % CO2. Upon addition of an equal volume of supplemented WME containing 1 μM test compound, an aliquot of incubation solution was removed to acetonitrile containing internal standard (final concentration 0.5 μM test compound and a cell density of 0.25×10^6 cells/mL). Similarly, aliquots were removed at 3, 6, 9, 15, 30, 45, 60, 90 and 120 min. 100 μL of 80 : 20 H2O/MeCN was added to all samples and the analysis plate was centrifuged for 10 min at room temperature prior to injection and analysis of samples by UPLC‐MS/MS. The response (area ratio of test compound to internal standard) was plotted against time using an exponential decay model and rate of disappearance calculated. Hepatocyte CLint (mL/min/10^6 cells) was scaled to in vivo CLint (mL/min/g liver) using the hepatocellularity scaling factor of 120×10^6 cells/g of liver.

CYP1A2 = target: T2, CYP1A2 (Homo sapiens, UniProt P05177); test: Fluorescence-based CYP inhibition, CYP bactosomes; assay type: in vitro ADME; conditions: read-out: CYP Inhibition IC50 1A2
T2 construct: purchased Cypex; host or cells: bacterial membranes (bactosomes)
T2 sequence (P05177 1-516): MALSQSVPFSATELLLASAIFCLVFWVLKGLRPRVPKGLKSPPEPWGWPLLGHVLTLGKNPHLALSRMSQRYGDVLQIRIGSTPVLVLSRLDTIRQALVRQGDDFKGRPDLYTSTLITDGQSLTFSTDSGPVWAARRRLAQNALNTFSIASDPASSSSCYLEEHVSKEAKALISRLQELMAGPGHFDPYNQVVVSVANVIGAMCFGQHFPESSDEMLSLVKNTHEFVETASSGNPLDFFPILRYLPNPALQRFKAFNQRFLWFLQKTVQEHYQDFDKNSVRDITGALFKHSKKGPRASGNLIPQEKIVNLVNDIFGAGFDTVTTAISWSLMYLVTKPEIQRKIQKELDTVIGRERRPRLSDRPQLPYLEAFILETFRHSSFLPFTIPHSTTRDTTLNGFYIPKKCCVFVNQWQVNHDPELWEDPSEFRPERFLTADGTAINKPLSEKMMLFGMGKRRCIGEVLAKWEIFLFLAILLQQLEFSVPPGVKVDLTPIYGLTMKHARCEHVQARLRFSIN
Procedure: (§1) Fluorescence-based CYP Inhibition using recombinantly expressed CYP bactosomes: Fluorescence CYP inhibition studies were conducted at 37 °C in 96-well, flat-bottom, clear polystyrene plates. Incubation mixtures containing […] bactosomes (1000 pmol/mL, 10 mg/mL Cypex TM), fluorigenic substrate (Cypex TM) and 50 mM potassium phosphate buffer (pH 7.4) were prepared at the following final concentrations: CYP1A2, 5 pmol/mL+0.5 μM Ethoxyresorufin (ER); […] Bactosome control protein was included in reactions to give a final concentration of 0.025 mg/mL. Reaction times were verified to be within the limits of kinetics linearity. For each isoform, 220 μL of incubation mix was added to each well of a 96-well, flat-bottom, clear polystyrene plate. […] Reactions were initiated by the addition of 25 μL regenerating cofactor solution (23 mM Glucose-6-Phosphate, 2.2 mM NADP, 6 Units per ml Glucose-6-Phosphate Dehydrogenase (from Baker's yeast S. cerevisiae) in 2 % w/v NaHCO3, Sigma) and subsequent production of fluorescence metabolite measured at 1 min intervals over a 10 min period using a BMG Optima fluorescence detector (ER: Exc 530 nm, Em 590 nm, MFC: Exc 410 nm, Em 530 nm, CEC: Exc 410 nm, Em 530 nm, MAMC: Exc 405 nm, Em 460 nm, DEF: Exc 405 nm, Em 560 nm, 7BQ: Exc 485 nm, Em 530 nm). Fluorescence responses were adjusted to a percentage of uninhibited control before plotting against compound concentration and deriving the IC50 by fitting to a 4 parameter logistic regression model.

CYP2D6 = target: T3, CYP2D6 (Homo sapiens, UniProt P10635); test: Fluorescence-based CYP inhibition, CYP bactosomes; assay type: in vitro ADME; conditions: read-out: CYP Inhibition IC50 2D6
T3 construct: purchased Cypex; host or cells: bacterial membranes (bactosomes)
T3 sequence (P10635 whole entry): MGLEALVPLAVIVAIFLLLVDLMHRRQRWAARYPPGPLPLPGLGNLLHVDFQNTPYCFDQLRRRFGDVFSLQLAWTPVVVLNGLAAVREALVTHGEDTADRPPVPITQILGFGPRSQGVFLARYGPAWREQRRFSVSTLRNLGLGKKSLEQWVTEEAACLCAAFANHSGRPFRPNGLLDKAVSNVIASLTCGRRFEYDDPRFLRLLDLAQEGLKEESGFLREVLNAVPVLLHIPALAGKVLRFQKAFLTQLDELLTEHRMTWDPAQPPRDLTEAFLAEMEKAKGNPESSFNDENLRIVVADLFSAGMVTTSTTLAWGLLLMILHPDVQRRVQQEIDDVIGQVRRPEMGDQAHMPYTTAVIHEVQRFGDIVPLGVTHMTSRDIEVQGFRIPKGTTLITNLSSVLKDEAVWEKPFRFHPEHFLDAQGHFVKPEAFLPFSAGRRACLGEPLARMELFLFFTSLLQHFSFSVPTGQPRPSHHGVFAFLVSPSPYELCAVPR
Procedure: as §1

CYP3A4 = target: T4, CYP3A4 (Homo sapiens, UniProt P08684); test: Fluorescence-based CYP inhibition, CYP bactosomes; assay type: in vitro ADME; conditions: read-out: CYP Inhibition IC50 3A4
T4 construct: purchased Cypex; host or cells: bacterial membranes (bactosomes)
T4 sequence (P08684 whole entry): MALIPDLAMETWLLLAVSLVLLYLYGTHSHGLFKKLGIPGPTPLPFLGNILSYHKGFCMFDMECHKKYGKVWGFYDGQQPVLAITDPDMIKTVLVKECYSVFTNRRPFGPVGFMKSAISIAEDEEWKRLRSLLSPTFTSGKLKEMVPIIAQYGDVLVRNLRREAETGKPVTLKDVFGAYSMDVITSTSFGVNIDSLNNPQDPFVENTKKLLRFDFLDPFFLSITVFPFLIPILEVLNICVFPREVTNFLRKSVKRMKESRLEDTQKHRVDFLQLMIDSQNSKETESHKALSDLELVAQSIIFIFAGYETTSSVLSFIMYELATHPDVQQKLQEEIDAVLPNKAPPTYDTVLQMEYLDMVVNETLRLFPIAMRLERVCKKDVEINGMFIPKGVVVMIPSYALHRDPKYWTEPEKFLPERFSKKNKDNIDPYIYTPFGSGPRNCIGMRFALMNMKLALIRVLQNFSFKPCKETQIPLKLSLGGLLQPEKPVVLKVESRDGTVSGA
Procedure: as §1

HCT116 cells = test: HCT116 cell growth and viability; assay type: cell-based; conditions: at the tested concentrations (data not shown)
From the text: We have previously shown that knockdown of KLK6 reduces migration and invasion of HCT116 cells in vitro.13 In order to test whether this effect could be recapitulated with small molecule KLK6 inhibitors, we measured the ability of 32 to reduce invasion of HCT116 cells. […] HCT116 cell growth and viability was not altered upon treatment with compounds 9 and 32 at the tested concentrations (data not shown).

KLK6 = KLK6 (Homo sapiens, UniProt Q92876); test: KLK6 enzymatic inhibition assay (fluorogenic Boc-Phe-Ser-Arg-AMC substrate); assay type: biochemical; set-up: made in house
Procedure: Using our previously published KLK6 assay format,21 we performed a HTS with the European Lead Factory (ELF),22 and tested ∼350,000 substances at 10 μM for their ability to reduce KLK6‐catalyzed hydrolysis of the fluorogenic Boc‐Phe‐Ser‐Arg‐AMC peptide.
High Throughput Screen: The European Lead Factory library of ∼350,000 compounds was used for high throughput screening at the Pivot Park Screening Center facilities in Oss, The Netherlands. […] For SPR, Biacore T200 was used and KLK6 was immobilized onto a CM5 chip. […] An 8 point 1 in 3 dilution series of 1 (50 μM to 0.02 μM) was also applied at the beginning and end of each screening day.
Enzyme inhibition assays: All chemicals were purchased from Sigma Aldrich (Gillingham, UK) unless otherwise stated.

T1 sequence (P00742 235-488 limits assumed): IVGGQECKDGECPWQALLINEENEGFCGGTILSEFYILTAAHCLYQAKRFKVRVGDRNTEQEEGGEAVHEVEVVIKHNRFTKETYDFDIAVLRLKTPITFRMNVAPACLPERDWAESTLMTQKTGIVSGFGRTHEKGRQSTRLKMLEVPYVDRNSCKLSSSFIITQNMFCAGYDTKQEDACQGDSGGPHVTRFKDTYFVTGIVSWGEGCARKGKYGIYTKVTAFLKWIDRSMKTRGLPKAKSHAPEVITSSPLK
T1 sequence (P00742 41-179 partner limits assumed): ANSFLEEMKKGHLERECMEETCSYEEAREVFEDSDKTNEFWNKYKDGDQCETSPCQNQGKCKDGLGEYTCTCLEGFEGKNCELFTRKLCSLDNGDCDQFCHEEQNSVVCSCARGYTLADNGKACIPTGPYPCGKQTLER

In the case of `CC[C@H](NC(=O)[C@H]1CN(c2ccc(C(=N)N)cc2)C(=O)O1)c1cccc2ccccc12` [Compound 32, (5R)‐3‐(4‐carbamimidoylphenyl)‐N‐((S)‐1‐(naphthalen‐1‐yl)propyl)‐2‐oxooxazolidine‐5‐carboxamide], the IC50 (Human Factor Xa) is reported as greater than 20 µM, the “Mouse Hep Cl” value [1] is reported as 2.3 mL/min/g and the IC50 (CYP1A2) is reported as greater than 10 µM. The IC50 (CYP2D6) was greater than 10 µM, the IC50 (CYP3A4) was 4.8 µM and the “HCT116 cell growth and viability” value (HCT116 cells) was “not altered”. The “gain in potency for KLK6” value (KLK6; relative to 5) was roughly 100 fold and the IC50 (KLK6; synthesized inhibitors (Table 3), 8.6 = assay limit, read-out: KLK6 pIC50 (converted)) was 0.00251 µM.
